# Experimental data published in paper PMC8963105, “A Novel Modulator of the Renin–Angiotensin System, Benzoylaconitine, Attenuates Hypertension by Targeting ACE/ACE2 in Enhancing Vasodilation and Alleviating Vascular Inflammation” (Frontiers in Pharmacology, 2022).
# Assays:
# [1] = tested on: spontaneously hypertension rats (SHRs); assay: chronic experiment: blood pressure, heart rate and aorta histology after 14-day oral administration in SHRs; assay type: in vivo, rat; details: once a day, 14 days
# Experimental: (§1) The SHRs were surgically implanted with a catheter via the left femoral artery, vein, and stomach after anesthetizing with 2% pentobarbital sodium (40 mg kg^−1 i.p.,). A pressure sensor was inserted into the terminal of the arterial catheter and connected to a PowerLab system (ADInstruments, New South Wales, Australia) for real-time blood pressure monitoring.
# (§2) All three MDAs (BAC, BMC, and BHC) were purchased from Nature-Standard Co., Ltd. (Shanghai, China) and their purities were all over 98%. The anti-hypertensive effects of MDAs were studied in both acute and chronic experiments. The 16-week-old SHRs were used in animal experiments, and each group had six rats. In the acute experiment, drug administration was via i.v. injection. For i.v. injection, the animals were randomly assigned into four groups: vehicle (0.1% DMSO–0.9% salt solution, n = 6), low-dose group (0.6 mg kg^−1 body weight, n = 6), medium-dose group (2 mg kg^−1 body weight, n = 6), and high-dose group (6 mg kg^−1 body weight, n = 6). The drug was administered using a venous catheter. In chronic experiments, the animals were randomly assigned into five groups: vehicle (5% Tween 80–0.9% salt solution, n = 6), captopril group (5 mg kg^−1 body weight, n = 6), low-dose group (3 mg kg^−1 body weight, n = 6), medium-dose group (10 mg kg^−1 body weight, n = 6), and high-dose group (30 mg kg^−1 body weight, n = 6). Oral administration with drug or 5% Tween 80–0.9% salt solution was carried out once a day, and continued for 14 days. The drugs were dissolved in 0.1% DMSO–0.9% salt solution for intravenous injection and in 5% Tween 80–0.9% salt solution for oral administration. Blood pressure was recorded in real time.
# (§3) Real-time blood pressure level was monitored after drug treatment in the acute and chronic experiments. All animals were surgically implanted with a catheter in the left femoral artery. After connection to the monitor, all animals were placed at room temperature of 25°C for 0.5–1 h and the average blood pressure value was calculated based on a real-time blood pressure curve (10 s of every 30 s).
# After euthanizing the rats with sodium pentobarbital (100 mg kg^−1, i.p.) administration in combination with isoflurane inhalation, the aortas were harvested directly according to a previously described method. The aortas were fixed in 4% paraformaldehyde for 24 h and embedded in paraffin. The cross-sections (5 μm) were stained with hematoxylin and eosin or subjected to immunostaining. Immunofluorescence staining for ACE and ACE2 was performed according to the manufacturer’s instructions (Servicebio, Wuhan, China).
# [2] = tested on: spontaneously hypertension rats (SHRs); assay: acute experiment: real-time blood pressure after i.v. injection in SHRs; assay type: in vivo, rat; details: for anti-hypertensive effect (in words): acute experiment, i.v. injection 0.6–6 mg kg^−1
# Experimental: as §1, §2, §3
# [3] = biological target: T1, recombinant human ACE (rhACE) (Homo sapiens, UniProt P12821); assay: SPR assay with rhACE; assay type: binding; details: rhACE on chip, 5% DMSO–1.05× PBS
# T1 construct: purchased Proteintech
# T1 sequence (P12821 30-1306): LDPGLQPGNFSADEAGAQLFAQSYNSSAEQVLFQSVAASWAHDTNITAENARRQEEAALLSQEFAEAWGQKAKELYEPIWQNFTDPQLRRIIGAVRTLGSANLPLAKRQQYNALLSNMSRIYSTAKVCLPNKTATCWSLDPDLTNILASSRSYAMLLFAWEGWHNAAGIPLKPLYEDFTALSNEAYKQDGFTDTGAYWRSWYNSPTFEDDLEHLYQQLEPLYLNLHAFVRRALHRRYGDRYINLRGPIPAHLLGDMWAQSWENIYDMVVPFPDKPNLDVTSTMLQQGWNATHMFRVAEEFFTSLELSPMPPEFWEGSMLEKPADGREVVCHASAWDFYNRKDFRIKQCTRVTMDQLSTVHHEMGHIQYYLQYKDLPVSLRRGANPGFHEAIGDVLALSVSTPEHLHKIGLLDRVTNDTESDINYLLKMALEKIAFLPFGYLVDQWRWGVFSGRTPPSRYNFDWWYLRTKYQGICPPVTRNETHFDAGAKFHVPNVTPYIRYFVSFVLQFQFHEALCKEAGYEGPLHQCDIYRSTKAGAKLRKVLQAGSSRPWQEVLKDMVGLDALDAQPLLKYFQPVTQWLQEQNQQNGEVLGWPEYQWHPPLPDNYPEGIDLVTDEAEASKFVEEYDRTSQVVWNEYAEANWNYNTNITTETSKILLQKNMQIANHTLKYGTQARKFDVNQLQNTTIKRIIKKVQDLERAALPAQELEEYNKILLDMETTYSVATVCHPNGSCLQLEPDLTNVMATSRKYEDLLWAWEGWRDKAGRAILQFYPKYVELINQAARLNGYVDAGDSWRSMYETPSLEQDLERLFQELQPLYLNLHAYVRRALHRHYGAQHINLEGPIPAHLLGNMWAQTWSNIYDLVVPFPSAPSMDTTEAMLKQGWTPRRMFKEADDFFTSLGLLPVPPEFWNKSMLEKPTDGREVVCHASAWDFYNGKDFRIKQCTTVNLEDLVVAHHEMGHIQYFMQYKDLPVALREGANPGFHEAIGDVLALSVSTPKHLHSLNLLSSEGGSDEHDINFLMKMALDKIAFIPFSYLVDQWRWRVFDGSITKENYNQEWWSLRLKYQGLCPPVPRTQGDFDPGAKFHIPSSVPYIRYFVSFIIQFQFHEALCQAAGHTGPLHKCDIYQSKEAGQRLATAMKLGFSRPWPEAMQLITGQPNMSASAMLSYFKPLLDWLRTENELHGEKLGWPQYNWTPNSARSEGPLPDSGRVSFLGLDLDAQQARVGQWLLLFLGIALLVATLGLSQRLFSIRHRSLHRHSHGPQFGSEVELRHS
# Experimental: (§4) To screen the potential targets of the MDAs in hypertension, a CVDPlatform (www.cbligand.org/CVD) was used as previously reported ([Zhang et al., 2016a]). The results of database screening were verified by virtual docking with Discovery Studio 3.5 (BIOVIA, San Diego, CA, United States) and then validated in the SPR assay. In the SPR assay, a solution of protein standards was prepared, and the concentration of recombinant human ACE (rhACE) protein and rhACE2 (Proteintech, Rosemont, IL, United States) solution was set to 500 μg ml^−1. […] Finally, the level of binding between the proteins and each molecule was determined based on the K d value.
# rhACE2 = biological target: T2, rhACE2 (Homo sapiens, UniProt Q9BYF1); assay: SPR assay with rhACE2; assay type: binding; details: rhACE2 on chip, 5% DMSO–1.05× PBS
# T2 construct: purchased Proteintech
# T2 sequence (Q9BYF1 18-805): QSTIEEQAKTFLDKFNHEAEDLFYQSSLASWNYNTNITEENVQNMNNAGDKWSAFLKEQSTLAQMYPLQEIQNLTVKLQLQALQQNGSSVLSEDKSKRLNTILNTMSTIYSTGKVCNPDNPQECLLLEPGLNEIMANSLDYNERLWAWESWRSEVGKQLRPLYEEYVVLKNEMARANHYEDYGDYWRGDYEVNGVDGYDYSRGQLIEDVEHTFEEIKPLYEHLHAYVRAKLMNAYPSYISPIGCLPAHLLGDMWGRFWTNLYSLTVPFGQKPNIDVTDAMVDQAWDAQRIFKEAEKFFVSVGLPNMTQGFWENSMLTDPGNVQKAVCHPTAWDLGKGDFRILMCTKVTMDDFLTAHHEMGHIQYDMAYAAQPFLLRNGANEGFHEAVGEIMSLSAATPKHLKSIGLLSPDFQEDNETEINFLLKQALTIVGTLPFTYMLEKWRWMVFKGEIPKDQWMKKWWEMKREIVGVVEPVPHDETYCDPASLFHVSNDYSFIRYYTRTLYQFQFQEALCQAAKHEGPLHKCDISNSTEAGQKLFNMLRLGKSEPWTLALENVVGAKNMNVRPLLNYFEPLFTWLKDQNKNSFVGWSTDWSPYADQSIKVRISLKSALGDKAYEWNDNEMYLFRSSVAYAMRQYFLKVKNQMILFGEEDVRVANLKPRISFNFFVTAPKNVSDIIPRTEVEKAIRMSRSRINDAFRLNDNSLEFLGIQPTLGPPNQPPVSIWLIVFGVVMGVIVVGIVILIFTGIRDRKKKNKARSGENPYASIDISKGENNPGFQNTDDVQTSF
# Experimental: as §4
# rhACE = rhACE (Homo sapiens, UniProt P12821); assay: ACE activity assay kit (enzyme kinetics, cell-free); assay type: biochemical
# rhACE, sequence (P12821 30-1306): as the sequence (P12821 30-1306) above
# Experimental: (§5) ACE and ACE2 activities were measured using the ACE activity assay kit and SensoLyte390 ACE2 activity assay kit (Anaspec, Fremont, CA, United States), respectively, according to the manufacturer’s instructions with some modifications. Briefly, rhACE solution dissolved in deionized water was used for analysis. ACE activity was measured in a reaction system with 50 μl of the sample and 50 μl of the ACE substrate solution with or without BAC (10^–4 to 10^–2 μM). ACE2 activity was assayed in the same manner as ACE activity. All assays were performed every 10 s for 30 min at 37°C using a Varioskan LUX fluorescence microplate reader (Thermo Fisher Scientific, Waltham, MA, United States). The autofluorescence value in each assay was subtracted from the measured values to generate the final results. The relative fluorescence unit of each sample was normalized to the corresponding total protein concentration, which was measured using a Pierce BCA protein assay kit (Thermo Fisher Scientific).
# hrACE2 = hrACE2 (Homo sapiens, UniProt Q9BYF1); assay: SensoLyte390 ACE2 activity assay (enzyme kinetics, cell-free); assay type: biochemical; details: EC50 of BMC and BHC could not be determined
# hrACE2, sequence (Q9BYF1 18-805): as the sequence (Q9BYF1 18-805) above
# Experimental: as §5
SMILES,heart rate [1],anti-hypertensive effect (in words) [2],"blood pressure reduction ([2]; i.v. injection, 6 mg kg^−1)",Kd [3],Kd (rhACE2),"IC50 (rhACE; 37°C, 30 min)",effect on ACE2 activity (in words) (hrACE2),effect on ACE activity (in words) (rhACE; IC50 could not be determined)
"C[C@H](CS)C(=O)N1CCC[C@H]1C(=O)O [captopril, reference compound]",Heart rate changed,–,–,–,–,–,–,–
"COCC12CN(C)C3C4C(OC)C1C3(C(OC)CC2O)C1CC2(O)C(OC)C(O)C4(O)C1C2OC(=O)c1ccccc1 (stereo not drawn) [BMC, Benzoylmesaconine]",–,observable anti-hypertensive effects,approximately 20 mmHg,53.6 µM,20.5 µM,0.96 µM,weaker pharmacodynamics effects,–
"COCC12CCC(OC)C34C5CC6(O)C(OC)C(O)C(O)(C5C6OC(=O)c5ccccc5)C(C(OC)C13)C4N(C)C2 (stereo not drawn) [BHC, Benzoylhypaconitine]",–,no anti-hypertensive effects,–,139 µM,308 µM,–,weaker pharmacodynamics effects,little effect
